Test results reported in patent EP0054589B1, “Organic phosphoric acid ester derivatives, a process for preparing the same and insecticidal, miticidal or nematocidal compositions containing the same” (priority 1980, dated 1982).

Columns and labels:
rice stem borer = assay: Insecticidal effect on rice stem borer, 3rd-instar larvae (rice seedling dip); format: in vivo, Chilo suppressalis; settings: after 72 hours, 25°C
Description: (§1) (A) A wettable powder prepared as described in Formulation Example 5 was diluted with water to a predetermined concentration. Rice seedlings were dipped into the dilute solution and placed in a 60 ml volume cup made of vinyl chloride resin, and 10 3rd-instar larvae of rice stem borer were put in each cup. The cups were capped and maintained at 25°C.
as §1, with “(B) A” for “(A) A”, “Example 7” for “Example 5”

tobacco cutworm [1] = assay: Insecticidal effect on tobacco cutworm (cabbage leaf dip); format: in vivo, Prodenia litura; settings: after 48 hours, 25°C
Description: (§2) (A) An emulsifiable concentrate prepared as described in Formulation Example 1 was diluted with water to a predetermined concentration and then cabbage leaves were dipped into the dilute solution and dried in air and placed in a 60 ml volume cup made of vinyl chloride resin. 3rd-instar larvae of tobacco cutworm were put in each cup and maintained at 25°C. After 48 hours, percent mortality was assessed. The test was replicated 3 times for each compound using 30 insects in each test.
as §2, with “(B)” for “(A)”, “3” for “1”

Apple = assay: Phytotoxicity on various crops; format: in vivo; set-up: key: Symbol — indicates that no toxicity was observed; settings: 500 ppm sprayed; checked visually after 10 days
Description: (§3) An emulsifiable concentrate prepared as described in Formulation Example 2 was diluted with water to a concentration of 500 ppm based on the effective ingredient and sprayed sufficiently using a spray-gun onto various test plants. The plants were kept in a green house. After 10 days from the application phytotoxicity was checked visually. The test was replicated 3 times for each compound.

Beet = assay: Phytotoxicity on various crops; format: in vivo; set-up: key: Symbol — indicates that no toxicity was observed; settings: 500 ppm sprayed; checked visually after 10 days
Description: as §3

Cabbage = assay: Phytotoxicity on various crops; format: in vivo; set-up: key: Symbol — indicates that no toxicity was observed; settings: 500 ppm sprayed; checked visually after 10 days
Description: as §3

Cotton = assay: Phytotoxicity on various crops; format: in vivo; set-up: key: Symbol — indicates that no toxicity was observed; settings: 500 ppm sprayed; checked visually after 10 days
Description: as §3

Cucumber = assay: Phytotoxicity on various crops; format: in vivo; set-up: key: Symbol — indicates that no toxicity was observed; settings: 500 ppm sprayed; checked visually after 10 days
Description: as §3

Green Pepper = assay: Phytotoxicity on various crops; format: in vivo; set-up: key: Symbol — indicates that no toxicity was observed; settings: 500 ppm sprayed; checked visually after 10 days
Description: as §3

Kidney Bean = assay: Phytotoxicity on various crops; format: in vivo; set-up: key: Symbol — indicates that no toxicity was observed; settings: 500 ppm sprayed; checked visually after 10 days
Description: as §3

Rice = assay: Phytotoxicity on various crops; format: in vivo; set-up: key: Symbol — indicates that no toxicity was observed; settings: 500 ppm sprayed; checked visually after 10 days
Description: as §3

Tea = assay: Phytotoxicity on various crops; format: in vivo; set-up: key: Symbol — indicates that no toxicity was observed; settings: 500 ppm sprayed; checked visually after 10 days
Description: as §3

Tomato = assay: Phytotoxicity on various crops; format: in vivo; set-up: key: Symbol — indicates that no toxicity was observed; settings: 500 ppm sprayed; checked visually after 10 days
Description: as §3

egg plant = assay: Phytotoxicity on various crops; format: in vivo; set-up: key: Symbol — indicates that no toxicity was observed; settings: 500 ppm sprayed; checked visually after 10 days
Description: as §3

tobacco cutworm [2] = assay: Long-lasting insecticidal effect on tobacco cutworm (sprayed cabbage plantlet); format: in vivo, Prodenia litura; settings: Table 5, concentration 500 (unit not given), mortality after 48 hours
Description: (§4) (A) An emulsifiable concentrate prepared as described in Formulation Example 2 was diluted with water to a predetermined concentration and sprayed onto a cabbage plantlet in a flower pot of 15 cm in diameter using a spray-gun sufficiently and the tests plants were placed in a green house. The leaves of the plants were cut off on the 3rd, 5th, 7th, 10th and 15th day and placed in a 60 ml volume cup and 3rd-instar larvae of tobacco cutworm were put in each cup. The cups were kept in an incubator (25°C). After 48 hours, percent mortality was assessed. The tests was replicated 3 times for each compound using 30 insects in each test.
as §4, with “(B) An” for “(A) An”, “Example 3” for “Example 2”, “and 1 5th” for “and 15th”

[3] = Table 1, 500 ppm, wettable powder as Formulation Example 5
[4] = Table 3, 500 ppm, emulsifiable concentrate as Formulation Example 1
[5] = Table 1, 100 ppm, wettable powder as Formulation Example 5
[6] = Table 2, 100 ppm, wettable powder as Formulation Example 7
[7] = Table 4, 100 ppm, emulsifiable concentrate as Formulation Example 3

| Molecule | Percent Mortality (%) (rice stem borer; [3]) | Percent Mortality (%) (tobacco cutworm [1]; [4]) | Phytotoxicity: Apple (Apple) | Phytotoxicity: Beet (Beet) | Phytotoxicity: Cabbage (Cabbage) | Phytotoxicity: Cotton (Cotton) | Phytotoxicity: Cucumber (Cucumber) | Phytotoxicity: Green Pepper (Green Pepper) | Phytotoxicity: Kidney Bean (Kidney Bean) | Phytotoxicity: Rice (Rice) | Phytotoxicity: Tea (Tea) | Phytotoxicity: Tomato (Tomato) | Phytotoxicity: Egg Plant (egg plant) | also measured |
| --- | --- | --- | --- | --- | --- | --- | --- | --- | --- | --- | --- | --- | --- | --- |
| CCCOP(=O)(Oc1ccc2c(c1)OC(C)=CC2(C)C)SCCC (centres unmarked) [Compound No. 3] | 100 | 100 | — | — | — | — | — | — | — | — | — | — | — |  |
| CCOP(=O)(Oc1ccc2c(c1)OC(C)=CC2(C)C)SCC (centres unmarked) [Compound No. 8] | 100 | 100 | — | — | — | — | — | — | — | — | — | — | — |  |
| CCCOP(=O)(Oc1ccc2c(c1)OC(C)=CC2(C)C)SC (centres unmarked) [Compound No. 13] | 100 | 100 | — | — | — | — | — | — | — | — | — | — | — |  |
| CCCSP(=O)(OCC)Oc1ccc2c(c1)OC(CC)=C(C)C2(CC)CC (centres unmarked) [Compound No. 21, O-ethyl-S-propyl-O-(2,4,4-triethyl-3-methyl-1,2-benzopyran-7-yl)phosphorothioate] | 100 |  | — | — | — | — | — | — | — | — | — | — | — | Percent Mortality (%) (rice stem borer; [5]): 100%; Percent Mortality (%) (rice stem borer; [6]): 100%; Percent Mortality (%) (tobacco cutworm [1]; [7]): 100% |
| CCOP(=S)(Oc1cccc2c1C(C)=CC(C)(C)O2)SC(C)CC (centres unmarked) [Compound No. 27] |  |  | — | — | — | — | — | — | — | — | — | — | — | Percent Mortality (%) (rice stem borer; [6]): 100%; Percent Mortality (%) (tobacco cutworm [1]; [7]): 100% |
| COP(=O)(OC)C(O)C(Cl)(Cl)Cl (centres unmarked) [Dipterex, dimethyl 2,2,2-trichloro-1-hydroxyethyl phosphonate, reference compound] | 100 |  |  |  |  |  |  |  |  |  |  |  |  | Percent Mortality (%) (rice stem borer; [5]): 100% |
| CNC(=O)ON=C(C)SC [Lannate, S-methyl N-(methylcarbamoyloxy)thioacetimidate, reference compound] |  |  |  |  |  |  |  |  |  |  |  |  |  | Percent Mortality After Application 3rd Day (tobacco cutworm [2]; leaves cut on 3rd day): 80%; Percent Mortality After Application 5th Day (tobacco cutworm [2]; leaves cut on 5th day): 30%; Percent Mortality After Application 7th Day (tobacco cutworm [2]; leaves cut on 7th day): 7%; Percent Mortality After Application 10th Day (tobacco cutworm [2]; leaves cut on 10th day): 0%; Percent Mortality After Application 15th Day (tobacco cutworm [2]; leaves cut on 15th day): 0% |
| COP(=O)(NC(C)=O)SC (centres unmarked) [Orthene, O,S-dimethyl acetylphosphoramidothioate, reference compound] |  | 90.0 |  |  |  |  |  |  |  |  |  |  |  |  |
| COP(=S)(OC)Oc1ccc([N+](=O)[O-])c(C)c1 [Sumithion, dimethyl(3-methyl-4-nitrophenyl)thiophosphate, reference compound] |  |  |  |  |  |  |  |  |  |  |  |  |  | Percent Mortality (%) (rice stem borer; Table 2, concentration not given): 100% |
| CCCCOP(=O)(Oc1ccc2c(c1)OC(C)=CC2(C)C)SCCC (centres unmarked) [compound 4] | 100 | 100 | — | — | — | — | — | — | — | — | — | — | — |  |
| CCOP(=S)(Oc1ccc2c(c1)OC(C)=CC2(C)C)SCC (centres unmarked) [compound 12] | 100 | 100 | — | — | — | — | — | — | — | — | — | — | — |  |
| CCCSP(=O)(Oc1ccc2c(c1)OC(C)=CC2(C)C)OC(C)CC (centres unmarked) [compound 15] | 100 | 100 | — | — | — | — | — | — | — | — | — | — | — |  |
| O-isopropyl-S-isopropyl-O-(2,4,4-trimethyl-1,4-benzopyran-7-yl)phosphorothioate [Compound No. 7] | 100 | 100 | — | — | — | — | — | — | — | — | — | — | — |  |
